Series [1] in a line: Fluorescence quantum yield (Coumarin 307 as reference). It is filed as physicochemical. As to the method: The absorption spectra of the two-photon probes were recorded on a Hewlett-Packard 8453 diode array spectrophotometer, and the fluorescence spectra of the two-photon probes were obtained with an Amico-Bowman series 2 luminescence spectrometer with a 1 cm standard quartz cell. The fluorescence quantum yields of the two-photon probes were determined by using Coumarin 307 as the reference by the literature method (J. N. Demas, G. A. Crosby, J. Phys. Chem. 1971, 75, 991-1024.). FIGS. 2a and 2b are one-photon absorption and emission spectra of the two-photon probe AZn1, respectively, and FIGS. 2c and 2d are one-photon absorption and emission spectra of the two-photon probe AZn2, respectively.

Series [2] in a line: Fluorescence enhancement with varying Zn2+ concentrations. Conditions: for FEF^OP, fluorescence enhancement factor by one-photon process / FEF^TP, fluorescence enhancement factor by two-photon process: (F−Fmin)/Fmin, MOPS buffer pH 7.2, presence of Zn2+. As to the method:
The one-photon absorption and emission spectra and two-photon emission spectra of the two-photon probes AZn2 and AZn1 were measured with varying Zn^2+concentrations, and the results are shown in FIGS. 3a through 3f.
As can be known from FIGS. 3a through 3f, when small increments of Zn^2+were added to AZn1 and AZn2 in MOPS buffer solution (30 mM, pH 7.2, /=0.10), the one- and two-photon excitation fluorescence (emission) intensity increased gradually without affecting the absorption spectra, presumably due to the blocking of the photo-induced electron transfer (PET) process by the complexation with Zn^2+.
The fluorescence enhancement factors [FEF=(F−Fmin)/Fmin] of the two-photon probe AZn2 measured for one- and two-photon processes were 2.5-fold larger than those of the two-photon probe AZn1 as a result of the lower fluorescence quantum yield (Φ) in the absence, and higher Φ in the presence, of excess Zn^2+. These analytical results can be more easily understood from the data in Table 2.

Series [3] is described as follows: Two-photon cross section and action spectra. It is filed as physicochemical. Conditions: MOPS buffer pH 7.2, presence of Zn2+; 780 nm. As to the method:
The two-photon cross section (δ) was determined by using femto second (fs) fluorescence measurement technique.
The intensities of the two-photon induced fluorescence spectra of the reference and the sample probe were measured, and the two-photon cross section of the sample probe was calculated according to Equation 3:
[formula] wherein the subscripts s and r represent sample and reference molecules, respectively, δ represents the two-photon cross section, S represents the strength of signals collected by a CCD detector, φ represents the fluorescence quantum efficiency, φrepresents the total fluorescence collection efficiency of an experimental system, c represents the number density of the molecules within each of the solutions, and δr represents the two-photon cross section of reference molecules.
Referring to FIG. 9, the two-photon action spectra of the Zn^2+ complexes with AZn1 and AZn2 in the buffer solutions indicated a φδ value of ˜90 GM at 780 nm, 4˜24-fold larger than those of TSQ and FluZin-3.

For a further series, the system named is 293 cells. The experiment in a line: Two-photon microscopy of probe-labeled 293 cells. It is filed as cell-based. Conditions: for TPEF of labeled cells collected at 360-460 nm / TPEF of labeled cells collected at 500-620 nm: 2 μM probe, excitation 780 nm. The procedure:
293 cells were incubated in DMEM (WelGene) supplemented with 10% FBS (WelGene), penicillin (100 unit/ml) and streptomycin (100 μg/ml).
Two days before imaging, the cells were transferred to glass-bottomed dishes (MatTek) and plated thereon. For labeling, the growth medium was replaced with FBS-free DMEM. The cells were incubated under 5% CO2, 37° C., using a 2 μM sensor for 30 minutes, washed three times with phosphate-buffered saline (PBS; Gibco), and further incubated in a colorless serum-free medium. Meanwhile, primary cortical cultures were taken from cerebral cortices of 1-day-old rats (Sprague-Dawley (SD)). The cerebral cortices were dissociated in Hank's balanced salt solution (HBSS; Gibco BRL, Gaithersburg, Md., USA) containing 1 U/ml papain (Worthington Biochemical Corporation, NJ, USA), plated at a density of 100 to 200 cells/mm^2 on poly-D-lysine and laminin-coated glass cover slips, and maintained in Neurobasal media (Gibco) supplemented with 2% B-27 (Gibco) and penicillin/streptomycin in a CO2 incubator at 37° C. After […] 7-15 days, the cortical cultures were washed three times with PBS and incubated in the presence of AZn2 (2 μM) in PBS at 37° C. for 30 minutes.
Two-photon fluorescence microscopy images of cells and tissue labeled with AZn2 were obtained with spectral confocal and multiphoton microscopes (Leica TCS SP2) with a ×100 oil objective and numerical aperture (NA)=1.30. The two-photon fluorescence microscopy images were obtained by exciting the two-photon probe with a mode-locked titanium-sapphire laser source (Coherent Chameleon, 90 MHz, 200 fs) set at wavelength of 780 nm and an output power of 1,230 mW, which corresponded to approximately 10 mW average power in the focal plane. To obtain images at 360-460 nm and 500-620 nm range, internal PMTs were used to collect the signals in an 8 bit unsigned 512×512 pixels at 400 Hz scan speed.
Moreover, because the fluorescence intensities of the two-photon probes increase slightly at pH<4 (FIGS. 8a and 8b), there is a possibility that the probes in the acidic vesicles might partially contribute to the TPM images. To rule out such possibility, 293 cells and primary cortical cultures were co-stained with AZn2 and LysoTracker Red (LTR), a well known one-photon fluorescent probe for the acidic vesicles, and the images were co-localized.
More specifically, (a) and (f) are bright field images, (b) and (g) are pseudo colored images of the AZn2-labeled 293 cells collected at 360-460 nm, (c) and (h) are pseudo colored images of the AZn2-labeled 293 cells collected at 500-580 nm, (d) and (i) are OPM images of the LTR-labeled 293 cells collected at 600-650 nm, and (e) and (j) are co-localized images. The one-photon and two-photon excitations were performed at 543 nm and 780 nm, respectively, the scale bar is 30 μm, and the images shown are representative images from replicate experiments (n=5).
FIG. 13 is images of AZn1- and LTR (2 μM for each)-labeled 293 cells: (a)-(e) and (f)-(j) are images of the labeled cells before and after addition of 100 μM TPEN to the imaging solution, respectively. More specifically, (a) and (f) are bright field images; (b) and (g) are pseudo colored images of the AZn1-labeled 293 cells collected at 360-460 nm; (c) and (h) are pseudo colored images of the AZn1-labeled 293 cells collected at 500-580 nm; (d) and (i) are OPM images of the LTR-labeled 293 cells collected at 600-650 nm; and (e) and (j) are co-localized images. […]

Where [4] appears, read: 20 mM MOPS, 100 mM KCl, 10 mM EGTA, pH 7.2, absence of Zn2+, ±10%.
Setting [5] is: 20 mM MOPS, 100 mM KCl, 10 mM EGTA, pH 7.2, presence of Zn2+, ±10%.

The structures appear in SMILES notation.

As to `Nc1ccc(NCCN(Cc2ccccn2)Cc2ccccn2)cc1` [AZn1], the “fluorescence quantum yield φ” value in series [1] (setting [4]) was found to be 0.022; in series [1] (setting [5]), 0.47; in series [1] (1,4-dioxane, ±15%) it was 0.19; in series [1] (DMF, ±15%), 0.055; in series [1] (Ethanol, ±15%) it was 0.057; in series [1] (H2O, ±15%), 0.022. In addition, the “FEF^OP, fluorescence enhancement factor by one-photon process” value in series [2] was 21. The “FEF^TP, fluorescence enhancement factor by two-photon process” value in series [2] is listed as 24. For the same compound, in series [3], the δ, peak two-photon cross section worked out at 210 GM. The “φδ, two-photon action cross section” value in series [3] was 86 GM. Further, the “TPEF of labeled cells collected at 360-460 nm” value in the series on 293 cells was “no TPEF”. Further, in the series on 293 cells, the “TPEF of labeled cells collected at 500-620 nm” value is “appreciable TPEF”.

On to `COc1cc(NC(=O)CN(C)c2ccc3cc(C(C)=O)ccc3c2)ccc1NCCN(Cc1ccccn1)Cc1ccccn1` [AZn2], for which the “fluorescence quantum yield φ” value in series [1] (setting [4]) is reported as 0.012; in series [1] (setting [5]), 0.65; in series [1] (1,4-dioxane, ±15%), 0.094; in series [1] (DMF, ±15%) it was 0.037; in series [1] (Ethanol, ±15%), 0.039; in series [1] (H2O, ±15%), 0.012. Besides, the “FEF^OP, fluorescence enhancement factor by one-photon process” value in series [2] was found to be 54. Also, the “FEF^TP, fluorescence enhancement factor by two-photon process” value in series [2] is given as 52. The “FEF (one- and two-photon) relative to AZn1” value in series [2] (larger than those of AZn1) came to 2.5 fold. Also, the δ, peak two-photon cross section in series [3] was found to be 140 GM. Further, the “φδ, two-photon action cross section” value in series [3] stood at 95 GM. Besides, the “intracellular location of probe” value in the series on 293 cells is recorded as “predominantly located in the cytosolic compartments”. Besides, the “TPEF of labeled cells collected at 360-460 nm” value with 293 cells is given as “no TPEF”. Besides, the “TPEF of labeled cells collected at 500-620 nm” value in the series with 293 cells is given as “appreciable TPEF”.

These data come from US8129137B2, “Two-photon probe for real-time monitoring of intracellular free zinc ions, method for preparing the probe and method for real-time monitoring of intracellular free zinc ions using the probe” (Korea University Industrial & Academic Collaboration …, priority 2008, dated 2012).
